Data reported in patent US20250171415A1, “SALT OF SUBSTITUTED AMINO SIX-MEMBERED NITRIC HETEROCYCLIC COMPOUND, CRYSTAL FORM THEREOF, METHOD FOR PREPARING SAME, AND USE THEREOF” (SHANGHAI RUNSHI MEDICAL TECHNOLOGY CO., LTD., priority 2022, published 2025).
Structures can show the parent of a compound that is named as a salt. One block for each molecule: values may come before it.

Key:
[1] = test system: human lung cancer NCI-H1581 nude mouse subcutaneous xenograft tumor; experiment: Efficacy in human lung cancer NCI-H1581 nude mouse subcutaneous xenograft tumor model; format: in vivo
Source text: The human lung cancer NCI-H1581 cell strain (preserved by Shanghai Institute of Materia Medica, Chinese Academy of Sciences) was inoculated subcutaneously in the right axilla of nude mice with an inoculation amount of the cells of 5×10^6 cells/mouse. The formed xenograft tumor was directly inoculated for use.
The tumor tissue in the vigorous growth phase was cut into about 1.5 mm^3 and was inoculated subcutaneously in the right axilla of the nude mouse under sterile conditions. The diameter of the subcutaneous xenograft tumor in the nude mouse was measured using a vernier caliper, and the animals were randomly grouped after the tumors grew to an average volume of about 150-160 mm^3. Animals in the Example 3 sample group were orally administered at 10 mg/kg, 5 mg/kg, and 2.5 mg/kg once a day for two consecutive weeks. Animals in the […] (AZD4547) were orally administered at 12.5 mg/kg once a day for two consecutive weeks. Throughout the experiment, the diameter of the xenograft tumor was measured 2 times a week, and the body weight of the mice was measured at the same time. The tumor volume (TV) was calculated as follows: TV=½×a×b^2, wherein a and b represent the length and width, respectively. The relative tumor volume (RTV) was calculated from the measurement results using the following formula: RTV=Vt/V0, wherein V0 is the tumor volume measured at the time of grouping and administration (d0), and Vt is the tumor volume at each measurement. The evaluation index of the anti-tumor activity was the relative tumor proliferation rate T/C (%), which was calculated as follows: T/C (%)=(TRTV/CRTV)×100%, wherein TRTV represents RTV of the treatment group; CRTV represents RTV of the negative control group.

[2] = Solubility experiments of compound of formula (I) and salts thereof; format: physicochemical; conditions: 25° C.
[3] = Water sorption and desorption experiments (DVS hygroscopicity); format: physicochemical; conditions: 40%-80% relative humidity, 25° C.
[4] = Solid stability study of dihydrochloride salt crystal form I; format: physicochemical
Source text: (in a covered sample flask) for 7 days, and for physical stability at room temperature/92.5% RH (uncovered) for 10 days.

[5] = Solid grinding stability: solid grinding, XRPD; format: physicochemical; conditions: 20 mg ground in a mortar for 2 min and 5 min
Protocol: 20 mg of the sample in Example 3 was weighed out, added to a mortar, and ground for 2 min and 5 min, respectively. Then, the sample was characterized by XRPD.

[6] = Solid grinding stability: dropwise addition of solvents and grinding; format: physicochemical; conditions: ground
[7] = Na2HPO4-citric acid buffer (pH 4.6)
[8] = 40° C./75% RH (uncovered) for 7 days
[9] = 60° C. (covered sample flask) for 7 days

SMILES: COc1cc(CCc2cc(NC(=O)c3ccc(N4C[C@@H](C)N[C@@H](C)C4)cc3)n[nH]2)cc(OC)c1 [AZD4547, reference compound]
- T/C (relative tumor proliferation rate) ([1]; 12.5 mg/kg orally once a day for two consecutive weeks): 20.01%

- Solubility [2, 7]: 30 µg/mL
- Solubility ([2]; deionized water): 2000 µg/mL
- Hygroscopicity (%) [3]: 0.81%
SMILES: C[C@@H]1COC(Nc2ccc3ncnc(Nc4ccc(OCc5nccs5)c(Cl)c4)c3c2)=N1.O=C(O)/C=C\C(=O)O [Maleate salt]

SMILES: CNC(=O)c1cccc2cc(Oc3ccnc(NC(=O)c4ccc(N5C[C@@H](C)N[C@@H](C)C5)cc4)c3)ccc12 [Compound of formula (I)]
- Solubility [2, 7]: 45 µg/mL
- Solubility ([2]; deionized water): 8 µg/mL

SMILES: CNC(=O)c1cccc2cc(Oc3ccnc(NC(=O)c4ccc(N5C[C@@H](C)N[C@@H](C)C5)cc4)c3)ccc12 [Dihydrochloride salt crystal form I]
- Purity [4, 8]: 99.86
- XRPD (crystal form) [4, 8]: Not changed
- Purity [4, 9]: 99.85
- XRPD (crystal form) [4, 9]: Not changed
- Purity ([4]; T0): 99.85
- XRPD (crystal form) ([4]; room temperature/92.5% RH (uncovered) for 10 days): Not changed
- Crystal form of the ground sample (XRPD) [5]: not changed
- Solvent grinding result (crystal form) ([6]; Acetone added dropwise): Crystal form I
- Solvent grinding result (crystal form) ([6]; Acetonitrile added dropwise): Crystal form I
- Solvent grinding result (crystal form) ([6]; Butanone added dropwise): Crystal form I
- Solvent grinding result (crystal form) ([6]; Ethanol added dropwise): Crystal form I
- Solvent grinding result (crystal form) ([6]; Ethyl acetate added dropwise): Crystal form I
- Solvent grinding result (crystal form) ([6]; Isopropanol added dropwise): Crystal form I
- Solvent grinding result (crystal form) ([6]; Methanol added dropwise): Crystal form I
- T/C (relative tumor proliferation rate) ([1]; 2.5 mg/kg orally once a day for two consecutive weeks): 49.06%
- T/C (relative tumor proliferation rate) ([1]; 5 mg/kg orally once a day for two consecutive weeks): 33.22%
- T/C (relative tumor proliferation rate) ([1]; 10 mg/kg orally once a day for two consecutive weeks): 17.17%
- Effect on the growth of xenograft tumors ([1]; 10 mg/kg, 5 mg/kg and 2.5 mg/kg orally once a day for two consecutive weeks): significant inhibitory effect
- Animal condition and mortality during the experiment ([1]; 10, 5 and 2.5 mg/kg orally once a day for two weeks, nude mice): no mice died
- Hygroscopicity (%) [3]: 0.65%
